Experimental data from patent US20110059869A1, “Method for Increasing Enzymatic Reactivity” (RIKEN, priority 2008, published 2011).

Experiments:
HindIII = experiment: DNA fragment II HindIII cleavage reactions on bead and plate surfaces with added substances; format: biochemical; settings: 0.6 M sorbitol; beads and plate; not of the same degree as trehalose
Description: The effect of the presence of substances other than trehalose on enzymatic activity was examined for enzymatic reactions on the surface of a support. Sorbitol was employed as the added reagent. Trehalose was also added and a sorbitol+trehalose reaction system was examined (Scheme 7).
HindIII cleavage reactions were conducted on biotin-labeled DNA fragment II (Seq. ID No. 5, Scheme 4) on the surface of beads by adding trehalose, glucose, sorbitol, and betaine, and the 104 by DNA fragment released was detected. Paramagnetic streptavidin beads were washed with accessory 1× binding buffer, recovered with a magnetic stand to remove the supernatant, and suspended in the same buffer. […] The precipitate of DNA fragments thus obtained was dissolved in 1× TE (pH 7.5) and analyzed with Bioanalyzer DNA 1000 assay (Agilent Technologies).
Trehalose and sorbitol were added and a HindIII cleavage reaction was conducted on a horizontal plate surface on biotin-labeled DNA fragment II (Seq. ID No. 5, Scheme 4) and the 104 by DNA fragments that were released were detected. […] The precipitate of DNA fragments obtained was dissolved in 1× TE (pH 7.5) and analyzed with Bioanalyzer DNA 1000 assay (Agilent Technologies).

[1] = State of streptavidin bead reaction solution during enzymatic reaction; format: physicochemical; settings: 0.6 M additive; extended / three hours restriction enzyme reaction
Description: Thus, with no nonuniformity in enzymatic activity, the various enzymatic reactions were promoted and the quantity of target DNA recovered increased.
This was attributed to characteristics such as the viscosity and diffusing effect of trehalose or sorbitol.

OC[C@@H](O)[C@@H](O)[C@H](O)[C@@H](O)CO [sorbitol, D(+) sorbitol]
enzymatic activity (yield of DNA recovered) (HindIII): high enzymatic activity was exhibited on all reaction surfaces | uniformity of beads in the reaction solution [1]: uniformity in the solution of beads was maintained
